What all share (format): functional
Common to all, as to conditions: read-out: ED50 (the source's name)

The test system of one assay is SK-OV-3. Put plainly: Cytotoxicity against human SKOV3 cells.
The test system of the next assay is A549. Put plainly: Cytotoxicity against human A549 cells.
In a further assay the test system is HCT-15. Put plainly: Cytotoxicity against human HCT-15 cells.
A further assay concerns XF498. Put plainly: Cytotoxicity against human XF498 cells.
Another assay has as its system SK-MEL-2. Put plainly: Cytotoxicity against human SK-MEL-2 cells.

Values after ≈ are worked out from the molar mass of the structure shown.

Take `C#C/C=C\CCCCCCCCCCCCCC/C=C/CCCC/C=C/CCCCC#C[C@@H](O)C#CCCCCCC/C=C/[C@H](O)C#C`: the EC50 in the assay with SK-OV-3 was 0.6 µg/mL (≈ 0.916 µM); with A549, 1.1 µg/mL (≈ 1.68 µM); with HCT-15, 1 µg/mL (≈ 1.53 µM); in the assay on XF498, 1.7 µg/mL (≈ 2.6 µM); with SK-MEL-2 it was 1.1 µg/mL (≈ 1.68 µM).

Take `C#CC(O)/C=C/CCCCCCC#CC/C=C/CCCCCCCCC/C=C/C(O)C#C` (stereo not given): the EC50 was found to be 0.1 µg/mL (≈ 0.229 µM) with SK-OV-3; 1.4 µg/mL (≈ 3.21 µM) in the assay on A549; 1.2 µg/mL (≈ 2.75 µM) in the assay on HCT-15; 1.2 µg/mL (≈ 2.75 µM) in the assay with XF498; 0.2 µg/mL (≈ 0.458 µM) with SK-MEL-2.

Turning to `C#C/C=C/[C@@H](O)CCCCCCCCC/C=C/CC#CCCCCCC/C=C/[C@H](O)C#C` [DIDEOXYPETROSYNOL E], the EC50 with SK-OV-3 was 0.1 µg/mL (≈ 0.229 µM); in the assay with A549, 1.3 µg/mL (≈ 2.98 µM); with HCT-15, 0.8 µg/mL (≈ 1.83 µM); with XF498, 0.6 µg/mL (≈ 1.37 µM); in the assay with SK-MEL-2, 0.1 µg/mL (≈ 0.229 µM).

Regarding `C#C[C@@H](O)/C=C/CCCCCCC#CC/C=C/C/C=C/CCCCCCCC[C@H](O)C#C` [DIDEOXYPETROSYNOL F], the EC50 with SK-OV-3, in the assay on A549, in the assay with HCT-15, in the assay with XF498 and in the assay on SK-MEL-2 was > 3 µg/mL in each case.

`COc1cccc2c1C(=O)c1c(O)c3c(c(O)c1C2=O)C[C@@](O)(C(=O)CO)C[C@@H]3O[C@H]1C[C@H](N)[C@H](O)[C@H](C)O1` [DOXORUBICIN]: the EC50 with SK-OV-3 amounted to 0.2 µg/mL (≈ 0.368 µM); in the assay with A549, 0.1 µg/mL (≈ 0.184 µM); in the assay on HCT-15 it was 0.9 µg/mL (≈ 1.66 µM); with XF498, 0.2 µg/mL (≈ 0.368 µM); in the assay with SK-MEL-2 it was 0.2 µg/mL (≈ 0.368 µM).

Regarding `C#C/C=C\CCCCCCCCCCCCCC/C=C/CCCC/C=C/CC/C=C/C#C[C@@H](O)C#CCCCCCC/C=C/[C@H](O)C#C` [PETROTETRAYNDIOL A], the EC50 in the assay on SK-OV-3 is 0.5 µg/mL (≈ 0.766 µM); in the assay on A549, 1.6 µg/mL (≈ 2.45 µM); in the assay with HCT-15 it was 1 µg/mL (≈ 1.53 µM); with XF498, 1.7 µg/mL (≈ 2.6 µM); with SK-MEL-2, 0.9 µg/mL (≈ 1.38 µM).

For `C#C/C=C\CCCCCCCCCCCCCC/C=C/CCCC/C=C/CCCCC#C[C@@H](O)C#CCCCCCCCC[C@H](O)C#C` [PETROTETRAYNDIOL B], the EC50 with SK-OV-3 is 2.2 µg/mL (≈ 3.35 µM); in the assay with A549, 1.7 µg/mL (≈ 2.59 µM); with HCT-15, 3.7 µg/mL (≈ 5.63 µM); with XF498, > 3 µg/mL; in the assay on SK-MEL-2, 1.9 µg/mL (≈ 2.89 µM).

The values above are taken from ChEMBL document CHEMBL1141820, “Cytotoxic polyacetylenes from the marine sponge Petrosia sp” (1999).
